# Test results reported in article PMC6100633, “Design, Synthesis, and Evaluation of a New Series of Thiazole-Based Anticancer Agents as Potent Akt Inhibitors” (Molecules : A Journal of Synthetic Chemistry and Natural …, 2018).
# Legend:
# [1] = system: A549 human lung adenocarcinoma cell line; assay: MTT assay, A549 cells; type: cell-based; details: for IC50: Homo sapiens, A549, 24 h
# Description: (§1) C6 Rat glioma and NIH/3T3 mouse embryonic fibroblast cells were incubated in Dulbecco’s Modified Eagle’s Medium (DMEM) (Sigma, Deisenhofen, Germany) supplemented with 10% fetal calf serum (Gibco, Paisley, UK). A549 Human lung adenocarcinoma cells were incubated in 90% RPMI supplemented with 10% fetal bovine serum (Gibco, Paisley, UK). All media were supplemented with 100 IU/mL penicillin-streptomycin (Gibco, Paisley, UK) and the cells were incubated at 37 °C in a humidified atmosphere of 95% air and 5% CO2. Exponentially growing cells were plated at 2 × 10^4 cells/mL into 96-well microtiter tissue culture plates (Nunc, Roskilde, Denmark) and incubated for 24 h before the addition of the drugs (the optimum cell number for cytotoxicity assays was determined in preliminary experiments). The stock solutions of the compounds were prepared in dimethyl sulfoxide (DMSO; Sigma Aldrich, Poole, UK) and further dilutions were made with fresh culture medium (the concentration of DMSO in the final culture medium was <0.1% which had no effect on the cell viability).
# (§2) The level of cellular 3-(4,5-dimethylthiazol-2-yl)-2,5-diphenyltetrazolium bromide (MTT) (Sigma-Aldrich, St. Louis, MO, USA) reduction was quantified as previously described in the literature with small modifications. […] At the end of this period, MTT was added to a final concentration of 0.5 mg/mL and the cells were incubated for 4 h at 37 °C. After the medium was removed, the formazan crystals formed by MTT metabolism were solubilized by addition of 200 µL DMSO to each well and absorbance was read at 540 nm with a microtiter plate spectrophotometer (BioTek Plate Reader, Winooski, VT, USA). Every concentration was repeated in three wells.
# C6 rat glioma cell line = assay: MTT assay, C6 cells; type: cell-based; details: for IC50: Rattus norvegicus, C6, 24 h
# Description: as §1, §2
# A549 cells = assay: Annexin V FITC/PI flow cytometric analysis of apoptosis, A549 cells; type: cell-based, human; details: 24 h, compounds at IC50 values
# Description: (§3) Annexin V staining protocol was applied according to the manufacturer’s instructions (BD Pharmingen, San Jose, CA, USA). The cells were then briefly washed with cold phosphate buffer saline (PBS) and suspended in a binding buffer at a concentration of 1 × 10^6 cells/mL. Then, 100 µL of this solution containing 1 × 10^5 cells was transferred to a 5 mL test tube. After 5 µL of Annexin V and PI was added, the cells were incubated for 15 min at room temperature in the dark. Then 400 µL of 1× binding buffer was added to each tube and the cells were processed for data acquisition, and analyzed on a BD FACSAria flow cytometer using FACSDiva version 6.1.1 software (BD Biosciences, San Jose, CA, USA).
# C6 cells = assay: Annexin V FITC/PI flow cytometric analysis of apoptosis, C6 cells; type: cell-based, rat; details: for early and late apoptotic cell population: C6 cell line, sum of early and late apoptotic cells; for Early Apoptotic Cells% / Late Apoptotic Cells% / Viable Cells%: C6 cells, 24 h, compounds at IC50 values
# Description: as §3
# Akt [2] = assay: In cell ELISA colorimetric Akt activity, A549 cells; type: cell-based, human; details: compounds at IC50 concentrations for 24 h
# Description: (§4) Briefly, the media was removed and 100 µL of 4% formaldehyde was added to each well. The plate was incubated in a fume hood at room temperature for 15 min. Formaldehyde was removed and the plate was washed twice with 100 µL/well of 1× TBS. Then, 1× TBS was removed, 100 µL/well of 1× permeabilization buffer was added and incubated for 15 min at room temperature. The permeabilization buffer was removed and the plate was washed once with 100 µL/well of 1× TBS. Then, 1× TBS was removed, 100 µL/well quenching solution was added and incubated at room temperature for 20 min. Quenching solution was removed and the plate was washed once with 100 µL/well of 1× TBS. Then, 1× TBS was removed and 100 µL/well of blocking buffer was added and incubated at room temperature for 30 min. After the blocking buffer was removed, 50 µL/well of primary antibody was added. A plate sealer was applied and incubated overnight at 4 °C. The primary antibody solution was removed and the plate was washed three times with 100 µL/well of 1× wash Buffer. After the wash buffer was removed, 100 µL/well of diluted HRP conjugate was added and incubated for 30 min at room temperature. The wash buffer was removed and 100 µL/well of TMB substrate was added. The plate was then incubated at room temperature, protected from light. 100 µL/well of TMB stop solution was added and the absorbance was measured at 450 nm within 30 min of stopping the reaction. The experiment was performed in triplicate wells. The values of blank wells were subtracted from each well of treated and control cells. Percent Akt activity was defined as the relative absorbance of treated versus untreated control cells.
# Akt [3] = assay: In cell ELISA colorimetric Akt activity, C6 cells; type: cell-based, rat; details: compounds at IC50 concentrations for 24 h
# Description: as §4
# [4] = system: NIH/3T3 mouse embryonic fibroblast cell line; assay: MTT assay, NIH/3T3 cells (healthy); type: cell-based; details: NIH3T3, 24 h
# Description: as §1, with “viability). The level of cellular 3-(4,5-dimethylthiazol-2-yl)-2,5-diphenyltetrazolium bromide (MTT) (Sigma-Aldrich, St. Louis, MO, USA) reduction was quantified as previously described in the literature with small modifications. […] At the end of this period, MTT was added to a final concentration of 0.5 mg/mL and the cells were incubated for 4 h at 37 °C. After the medium was removed, the formazan crystals formed by MTT metabolism were solubilized by addition of 200 µL DMSO to each well and absorbance was read at 540 nm with a microtiter plate spectrophotometer (BioTek Plate Reader, Winooski, VT, USA). Every concentration was repeated in three wells.” for “viability).”
IC50 [1] [µg/mL],IC50 (C6 rat glioma cell line) [µg/mL],melting point [°C],Structure (SMILES),IC50 A549 Cell Line ([1]; 24 h) [µg/mL],IC50 C6 Cell Line (C6 rat glioma cell line; 24 h) [µg/mL],Early Apoptotic Cells% (A549 cells) [%],Late Apoptotic Cells% (A549 cells) [%],early and late apoptotic cell population (C6 cells) [%],Early Apoptotic Cells% (C6 cells) [%],Late Apoptotic Cells% (C6 cells) [%],Akt Inhibition % A549 Cell Line (Akt [2]) [%],Akt Inhibition % C6 Cell Line (Akt [3]) [%],IC50 [4] [µg/mL],Viable Cells% (A549 cells) [%],Viable Cells% (C6 cells) [%]
,,,"N.N.[Cl][Pt][Cl] [Cisplatin, cisplatin, reference compound]",17.33 ± 2.08,12.67 ± 3.06,2.6,63.5,28.8,3.3,25.5,31.01 ± 3.18,77.25 ± 5.75,,,
410 ± 14.1,> 500,,"N#Cc1ccc(Oc2ccc(C=NNc3nc(-c4ccccc4)cs3)cc2)cc1 [Compound 1, 2-[2-((4-(4-Cyanophenoxy)phenyl)methylene)hydrazinyl]-4-phenylthiazole]",,,,,,,,,,197 ± 20.8,,
100 ± 20,> 500,250 to 251,"N#Cc1ccc(Oc2ccc(C=NNc3nc(-c4ccc([N+](=O)[O-])cc4)cs3)cc2)cc1 [Compound 2, 2-[2-((4-(4-Cyanophenoxy)phenyl)methylene)hydrazinyl]-4-(4-nitrophenyl)thiazole]",,,,,,,,,,71.7 ± 24.7,,
193 ± 15.3,> 500,204 to 205,"N#Cc1ccc(Oc2ccc(C=NNc3nc(-c4ccc(F)cc4)cs3)cc2)cc1 [Compound 3, 2-[2-((4-(4-Cyanophenoxy)phenyl)methylene)hydrazinyl]-4-(4-fluorophenyl)thiazole]",,,,,,,,,,170 ± 36.1,,
207 ± 23.1,> 500,227 to 228,"N#Cc1ccc(Oc2ccc(C=NNc3nc(-c4ccc(Cl)cc4)cs3)cc2)cc1 [Compound 4, 2-[2-((4-(4-Cyanophenoxy)phenyl)methylene)hydrazinyl]-4-(4-chlorophenyl)thiazole]",,,,,,,,,,180 ± 10,,
198 ± 10.4,> 500,217 to 218,"N#Cc1ccc(Oc2ccc(C=NNc3nc(-c4ccc(Br)cc4)cs3)cc2)cc1 [Compound 5, 2-[2-((4-(4-Cyanophenoxy)phenyl)methylene)hydrazinyl]-4-(4-bromophenyl)thiazole]",,,,,,,,,,163 ± 5.77,,
12 ± 1.73,3.83 ± 0.76,232 to 233,"N#Cc1ccc(Oc2ccc(C=NNc3nc(-c4ccc(C#N)cc4)cs3)cc2)cc1 [Compound 6, 2-[2-((4-(4-Cyanophenoxy)phenyl)methylene)hydrazinyl]-4-(4-cyanophenyl)thiazole]",,,2.3,36.5,32.8,4.6,28.2,45.77 ± 10.58,71.66 ± 4.09,> 500,14.4,42.2
270 ± 95.4,16 ± 5.66,228 to 229,"Cc1ccc(-c2csc(NN=Cc3ccc(Oc4ccc(C#N)cc4)cc3)n2)cc1 [Compound 7, 2-[2-((4-(4-Cyanophenoxy)phenyl)methylene)hydrazinyl]-4-(4-methylphenyl)thiazole]",,,,,,3.2,14.3,,70.42 ± 10.37,185 ± 5,,69.2
107 ± 5.77,5.83 ± 0.76,249 to 250,"N#Cc1ccc(Oc2ccc(C=NNc3nc(-c4ccc(O)cc4)cs3)cc2)cc1 [Compound 8, 2-[2-((4-(4-Cyanophenoxy)phenyl)methylene)hydrazinyl]-4-(4-hydroxyphenyl)thiazole]",,,2.1,38.7,,1.9,23.8,57.37 ± 17.30,24.99 ± 0.52,227 ± 11.6,18.5,49.7
233 ± 57.7,> 500,210 to 211,"COc1ccc(-c2csc(NN=Cc3ccc(Oc4ccc(C#N)cc4)cc3)n2)cc1 [Compound 9, 2-[2-((4-(4-Cyanophenoxy)phenyl)methylene)hydrazinyl]-4-(4-methoxyphenyl)thiazole]",,,,,,,,,,433 ± 28.9,,
> 500,> 500,204 to 205,"N#Cc1ccc(Oc2ccc(C=NNc3nc(-c4ccc5ccccc5c4)cs3)cc2)cc1 [Compound 10, 2-[2-((4-(4-Cyanophenoxy)phenyl)methylene)hydrazinyl]-4-(naphthalen-2-yl)thiazole]",,,,,,,,,,> 500,,
92.5 ± 3.54,26.3 ± 1.53,235 to 236,"N#Cc1ccc(Oc2ccc(C=NNC(N)=S)cc2)cc1 [Compound A, 4-(4-Cyanophenoxy)benzaldehyde thiosemicarbazone]",,,7.6,45.9,,3.2,13.1,68.08 ± 2.48,25.23 ± 8.62,225 ± 18,24.2,70.2
